Measured values published in patent US4352944A, “Treatment of cashew nut shell liquid” (Minnesota Mining and Manufacturing Company, priority 1980, dated 1982).
Entries after “also recorded” stand apart in the source; their conditions may differ.

Key:
[1] = Effect of length of time of DETA treatment (Example 3)
Description: (§1) Technical CNSL of Brazilian origin and distilled CNSL obtained from it were used in the present work. Material of this origin tends to be richer in cardol. The average molecular weight was taken to be 306 based upon cardanol (average dienoid, m.w. 300) and cardol (m.w. 314, average trienoid). Three amines were used, namely diethylenetriamine (V), N-(2-aminoethyl)ethanolamine (VI) and diethanolamine (VII), which are structurally related. [drawing 3] Different molar proportions of the triamine (DETA) (V) were used with distilled CNSL (1.0 mole), from 0.25, 0.50 to 1.0. In the case of Technical CNSL (having more cardol initially present) the molar proportions of DETA were 1.0, 1.6 and 2.0 per mole of the CNSL. The mixtures in all cases were kept for 7 days and then distilled under high vacuum. After recovery of the amine, one fraction of cardanol which was considerably purified was collected. […] The distillation residue was still quite mobile and from this, cardol and the polymer from the original CNSL could be recovered.
(§2) In the distillations reported in the following Tables 1 and 2 a Vigreux column was not used but merely a short still head section. All products were examined by gas-liquid chromatography (hereinafter GLC) on a gas chromatographic apparatus equipped with an integrator upon a 3% SE30 type column after trimethylsilylation with bis-(trimethylsilyl)acetamide in a pyridine solution. In the calculation of the results, response fractions have not been used. The peak areas as printed out by integration have been normalized (expressed in % form).
Technical CNSL was treated with DETA (1 mole proportion) and the mixture distilled as in Example 1 after it had been allowed to stand for 24 hours instead of 7 days. […] Probably an overnight procedure might well suffice.

[2] = Distillation of distilled CNSL treated with amines (Example 1, Table 2)
Description: as §1, §2
(9.18 g distilled CNSL was used with different

[3] = Runs with different amines on distilled CNSL, GC of distillate (Example 2); settings: 0.2 mole amine, seven days, 0.5 mm Hg, fraction 180-185° C.
Method: A series of runs was performed using different amines. 0.2 mole of the amines indicated in the table was mixed with 300 g of distilled CNSL (cardanol:cardol 90:10, 1.0 mole). When the mixture was stirred a mild exothermic reaction was noted. The mixture was allowed to stand for seven days at room temperature then distilled at 0.5 mm Hg. The major fraction (boiling at 180° to 185° C.) was analyzed by gas chromatography for cardanol and cardol.

[4] = determined in aqueous solution; literature values; cited from earlier work
[5] = Distillation of Technical CNSL treated with amines (Example 1, Table 1); settings: for % composition of distillate: 2-me-Cardol / % composition of distillate: Cardanol / % composition of distillate: Cardol / % composition of residue: 2-me-Cardol / % composition of residue: Cardanol / % composition of residue: Cardol: short still head
Description: as §1
In a typical experiment, technical CNSL (9.18 g) and DETA (3.09 g: 1 mole) were interacted at ambient temperature and the mixture after 7 days distilled through a short Vigreux type Claisen flask.
as §2
(9.18 g of Technical CNSL was used)

[6] = Effectiveness of bases in cardol removal / cardol-cardanol separation (Example 7); settings: for effect on separation / suitability, in words: general statement

## NCCNCCN [DETA, diethylenetriamine]
[1]; 24 h, 1 mole proportion
  effectiveness of 24 hour treatment: quite effective
[1]; 24 h with DETA (1 M)
  % Composition of distillate: 2-Methyl-Cardol: 1.6%
  % composition of distillate: Cardanol: 91.7%
  % composition of distillate: Cardol: 6.6%
[1]; 7 days with DETA (1 M)
  % Composition of distillate: 2-Methyl-Cardol: 1.8%
  % composition of distillate: Cardanol: 92.0%
  % composition of distillate: Cardol: 6.2%
[2]; amine 0.25 M
  % composition of distillate: 2-me-Cardol: 0.7%
  % composition of distillate: Cardanol: 95.4%
  % composition of distillate: Cardol: 3.9%
[2]; amine 0.50 M
  % composition of distillate: 2-me-Cardol: 0.4%
  % composition of distillate: Cardanol: 97.7%
  % composition of distillate: Cardol: 2.0%
[2]; amine 1.0 M
  % composition of distillate: 2-me-Cardol: 2.0%
  % composition of distillate: Cardanol: 93.8%
  % composition of distillate: Cardol: 4.2%
[3]
  % composition of distillate: Cardanol: 98.9%
  % composition of distillate: Cardol: 0.0%
[4]
  Kb: 4.5 × 10^-5
[5]; 1 molar proportion, no Vigreux column, from ca 20%
  cardol after distillation: ~6%
[5]; 1 mole DETA, 7 days, short Vigreux type flask
  impurity in distilled cardanol by TLC: no cardanol
[5]; Vigreux type column
  cardol after distillation, in words: almost zero
[5]; amine 1 M, 7 days
  % composition of distillate: 2-me-Cardol: 1.9%
  % composition of distillate: Cardanol: 93.0%
  % composition of distillate: Cardol: 5.1%
  % composition of residue: 2-me-Cardol: 3.2%
  % composition of residue: Cardanol: 85.6%
  % composition of residue: Cardol: 11.2%
[5]; amine 1.6 M, 7 days
  % composition of distillate: 2-me-Cardol: 2.1%
  % composition of distillate: Cardanol: 91.1%
  % composition of distillate: Cardol: 6.8%
  % composition of residue: 2-me-Cardol: 4.24%
  % composition of residue: Cardanol: 75.1%
  % composition of residue: Cardol: 21.7%
[5]; amine 2 M, 7 days
  % composition of distillate: 2-me-Cardol: 1.1%
  % composition of distillate: Cardanol: 93.1%
  % composition of distillate: Cardol: 5.8%
  % composition of residue: 2-me-Cardol: 7.6%
  % composition of residue: Cardanol: 63.2%
  % composition of residue: Cardol: 29.1%
[6]
  Effectiveness (in cardol removal): excellent

## OCCNCCO [Diethanolamine, diethanolamine]
[5]; amine 1.5 M, 7 days
  % composition of distillate: 2-me-Cardol: 2.3%
  % composition of distillate: Cardanol: 88.0%
  % composition of distillate: Cardol: 9.7%
  % composition of residue: 2-me-Cardol: 10.4%
  % composition of residue: Cardanol: 55.7%
  % composition of residue: Cardol: 33.9%
[6]
  Effectiveness (in cardol removal): not effective; also recorded: ineffective
  effect on separation / suitability, in words: not effective

## NCCNCCO [N-(2-Aminoethyl)ethanolamine, N-(2-aminoethyl)ethanolamine]
[4]
  Kb: 6.6 × 10^-5
[5]; amine 1.5 M, 7 days
  % composition of distillate: 2-me-Cardol: 2.3%
  % composition of distillate: Cardanol: 92.4%
  % composition of distillate: Cardol: 5.3%
  % composition of residue: 2-me-Cardol: 4.7%
  % composition of residue: Cardanol: 75.5%
  % composition of residue: Cardol: 19.8%
[6]
  Effectiveness (in cardol removal): excellent

## C1CCNCC1 [Piperidine, piperidine]
[3]
  % composition of distillate: Cardanol: 96.1%
  % composition of distillate: Cardol: 2.2%
[4]
  Kb: 1.7 × 10^-3
[6]
  Effectiveness (in cardol removal): excellent

## N [ammonium hydroxide]
[6]
  effect on separation / suitability, in words: not suitable

## CCCCN [n-butylamine]
[3]
  % composition of distillate: Cardanol: 94.5%
  % composition of distillate: Cardol: 5.5%
[4]
  Kb: 3.9 × 10^-4
[6]
  Effectiveness (in cardol removal): not effective; also recorded: ineffective
  effect on separation / suitability, in words: not suitable

## CCN(CC)CC [triethylamine]
[4]
  Kb: 4.5 × 10^-4
[6]
  Effectiveness (in cardol removal): excellent
